Experimental data taken from PubChem BioAssay AID1845204 (Molecular Pharmacology Branch, DTP, NCI, 2023).
Calls of active or inactive are those of the source. How the source made its calls: active means viability on the fitted dose curve at most 10% of control; inactive means the rest.

System: HSSY-II tumor spheroid viability
Experiment: Anticancer human tumor HSSY-II cell line growth inhibition;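 on IC50: spheroids exposed to compounds for seven days before reading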;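 on viability, T/C: spheroids exposed to compounds for seven days before reading; percent of DMSO vehicle control viability so 100% = untreated level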
Settings: spheroids with HUVEC and MSC; for IC50: curve of first compound; for viability, T/C: stronger effect = lower value
Summary of the method: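 Single agents and combinations were tested on spheroids built from tumor cells plus HUVEC and hMSC, at half-log dilutions starting at or near clinical Cmax, else 10 microM; final DMSO 0.25% (v/v).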

[1] = second compound 30 pM, first compound 0.00949 µM
[2] = second compound 30 pM, first compound 0.03 µM
[3] = second compound 30 pM, first compound 0.0949 µM
[4] = second compound 30 pM, first compound 0.3 µM
[5] = second compound 30 pM, first compound 0.949 µM
[6] = second compound 30 pM, first compound 3 µM
[7] = second compound 94.9 pM, first compound 0.00949 µM
[8] = second compound 94.9 pM, first compound 0.03 µM
[9] = second compound 94.9 pM, first compound 0.0949 µM
[10] = second compound 94.9 pM, first compound 0.3 µM
[11] = second compound 94.9 pM, first compound 0.949 µM
[12] = second compound 94.9 pM, first compound 3 µM
[13] = second compound 0.0003 µM, first compound 0.00949 µM
[14] = second compound 0.0003 µM, first compound 0.03 µM
[15] = second compound 0.0003 µM, first compound 0.0949 µM
[16] = second compound 0.0003 µM, first compound 0.3 µM
[17] = second compound 0.0003 µM, first compound 0.949 µM
[18] = second compound 0.0003 µM, first compound 3 µM
[19] = second compound 0.000949 µM, first compound 0.00949 µM
[20] = second compound 0.000949 µM, first compound 0.03 µM
[21] = second compound 0.000949 µM, first compound 0.0949 µM
[22] = second compound 0.000949 µM, first compound 0.3 µM
[23] = second compound 0.000949 µM, first compound 0.949 µM
[24] = second compound 0.000949 µM, first compound 3 µM
[25] = second compound 0.003 µM, first compound 0.00949 µM
[26] = second compound 0.003 µM, first compound 0.03 µM
[27] = second compound 0.003 µM, first compound 0.0949 µM
[28] = second compound 0.003 µM, first compound 0.3 µM
[29] = second compound 0.003 µM, first compound 0.949 µM
[30] = second compound 0.003 µM, first compound 3 µM

Compound	IC50 (second compound 30 pM)	IC50 (second compound 94.9 pM)	IC50 (second compound 0.0003 µM)	IC50 (second compound 0.000949 µM)	IC50 (second compound 0.003 µM)	viability, T/C [3]	viability, T/C [4]	viability, T/C [5]	viability, T/C [6]	viability, T/C [9]	viability, T/C [10]	viability, T/C [11]	viability, T/C [12]	viability, T/C [15]	viability, T/C [16]	viability, T/C [17]	viability, T/C [18]	viability, T/C [22]	viability, T/C [23]	viability, T/C [24]	other results
CNCc1ccc(-c2cc(-c3nc(-c4ccc(S(=O)(=O)C(C)C)cc4)cnc3N)on2)cc1 + COc1cc2c(cc1O)CCNC21CSC2c3c(OC(C)=O)c(C)c4c(c3C(COC1=O)N1C(O)C3Cc5cc(C)c(OC)c(O)c5C(C21)N3C)OCO4	31.5 nM	11.5 nM	< 9.49 nM	< 9.49 nM	< 9.49 nM	7.62%	4.24%	1.27%	0.11%	4.64%	4.08%	1.02%	0.1%	3.66%	3.41%	0.72%	0.12%	1.1%	0.09%	0.15%	viability, T/C [1]: 93.8%; viability, T/C [2]: 51.9%; viability, T/C [7]: 57%; viability, T/C [8]: 15.9%; viability, T/C [13]: 10.1%; viability, T/C [14]: 5.43%; viability, T/C [19]: 2.93%; viability, T/C [20]: 2.47%; viability, T/C [21]: 2.03%; viability, T/C [25]: 0.22%; viability, T/C [26]: 0.27%; viability, T/C [27]: 0.21%; viability, T/C [28]: 0.2%; viability, T/C [29]: 0.18%; viability, T/C [30]: 0.25%
Cc1sc2c(c1C)C(c1ccc(Cl)cc1)=NC(CC(=O)Nc1ccc(O)cc1)c1nnc(C)n1-2 (stereo not given) + COc1cc2c(cc1O)CCNC21CSC2c3c(OC(C)=O)c(C)c4c(c3C(COC1=O)N1C(O)C3Cc5cc(C)c(OC)c(O)c5C(C21)N3C)OCO4	108 nM	54 nM	< 9.49 nM	< 9.49 nM	< 9.49 nM	53.1%	23.3%	14.2%	7.89%	40.5%	19.5%	11.1%	4.34%	10.5%	4.16%	1.76%	0.21%	0.18%	0.05%	0.12%	viability, T/C [1]: 84.8%; viability, T/C [2]: 78.4%; viability, T/C [7]: 76.4%; viability, T/C [8]: 60.5%; viability, T/C [13]: 11.4%; viability, T/C [14]: 13.4%; outcome [19]: active; viability, T/C [20]: 1.98%; outcome [21]: active; viability, T/C [25]: 0.14%; viability, T/C [26]: 0.14%; viability, T/C [27]: 0.17%; viability, T/C [28]: 0.17%; viability, T/C [29]: 0.14%; viability, T/C [30]: 0.27%
Cn1ncnc1[C@H]1c2n[nH]c(=O)c3cc(F)cc(c23)N[C@@H]1c1ccc(F)cc1 + COc1cc2c(cc1O)CCNC21CSC2c3c(OC(C)=O)c(C)c4c(c3C(COC1=O)N1C(O)C3Cc5cc(C)c(OC)c(O)c5C(C21)N3C)OCO4	36.7 nM	< 9.49 nM	< 9.49 nM	< 9.49 nM	< 9.49 nM	32%	14.4%	9.09%	6.64%	15.6%	10.5%	8.55%	6.28%	8.23%	7.73%	6.35%	3.6%	2.07%	0.53%	0.15%	viability, T/C [1]: 65.3%; viability, T/C [2]: 53.8%; viability, T/C [7]: 32.6%; viability, T/C [8]: 25.6%; viability, T/C [13]: 8.74%; viability, T/C [14]: 9.03%; viability, T/C [19]: 2.25%; viability, T/C [20]: 1.71%; viability, T/C [21]: 1.81%; viability, T/C [25]: 0.2%; viability, T/C [26]: 0.25%; viability, T/C [27]: 0.2%; viability, T/C [28]: 0.15%; viability, T/C [29]: 0.14%; viability, T/C [30]: 0.26%
O=C(c1cc(Cc2n[nH]c(=O)c3ccccc23)ccc1F)N1CCN(C(=O)C2CC2)CC1 + COc1cc2c(cc1O)CCNC21CSC2c3c(OC(C)=O)c(C)c4c(c3C(COC1=O)N1C(O)C3Cc5cc(C)c(OC)c(O)c5C(C21)N3C)OCO4	3000 nM	875 nM	< 94.9 nM	< 94.9 nM	< 94.9 nM	91.1%	85.6%	81.6%	50.9%	73%	65.4%	49.7%	20.2%	11.3%	10.6%	8.99%	8.1%	1.82%	2.22%	1.13%	viability, T/C (second compound 30 pM, first compound 9.49 µM): 12.3%; viability, T/C (second compound 30 pM, first compound 30 µM): 11.1%; viability, T/C (second compound 94.9 pM, first compound 9.49 µM): 9.72%; viability, T/C (second compound 94.9 pM, first compound 30 µM): 8.42%; viability, T/C (second compound 0.0003 µM, first compound 9.49 µM): 7.62%; viability, T/C (second compound 0.0003 µM, first compound 30 µM): 5.94%; viability, T/C [21]: 2.49%; viability, T/C (second compound 0.000949 µM, first compound 9.49 µM): 0.5%; viability, T/C (second compound 0.000949 µM, first compound 30 µM): 0.21%; viability, T/C [27]: 0.29%; viability, T/C [28]: 0.34%; viability, T/C [29]: 0.26%; viability, T/C [30]: 0.22%; viability, T/C (second compound 0.003 µM, first compound 9.49 µM): 0.24%; viability, T/C (second compound 0.003 µM, first compound 30 µM): 0.36%
